Results reported in patent US11759462B2, “Spirocyclic compounds as tryptophan hydroxylase inhibitors” (priority 2013, dated 2023).
Like-named read-outs stand apart in the source and are kept apart here.

Target: T1, Recombinant human TPH1 (MBP tagged) (Homo sapiens, UniProt P17752)
T1 construct: cloning full length human TPH1 cDNA in to a bacterial pMAL-c5E expression vector; made in house; host or cells: E. coli BL21 (DE3)
T1 sequence (P17752 1-444): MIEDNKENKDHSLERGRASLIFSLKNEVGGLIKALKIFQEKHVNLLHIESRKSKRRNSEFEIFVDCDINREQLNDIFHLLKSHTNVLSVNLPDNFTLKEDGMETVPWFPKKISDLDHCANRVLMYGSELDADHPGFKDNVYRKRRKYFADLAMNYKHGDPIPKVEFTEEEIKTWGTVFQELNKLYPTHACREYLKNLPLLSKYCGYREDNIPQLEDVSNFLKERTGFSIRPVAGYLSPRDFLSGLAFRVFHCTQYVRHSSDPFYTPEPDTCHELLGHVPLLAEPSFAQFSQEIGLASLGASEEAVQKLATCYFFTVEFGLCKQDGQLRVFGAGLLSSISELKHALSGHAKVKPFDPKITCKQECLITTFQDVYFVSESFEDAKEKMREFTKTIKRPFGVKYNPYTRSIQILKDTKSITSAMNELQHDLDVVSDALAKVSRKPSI
Experiment: TPH1 in vitro inhibition assay (kinetic fluorescence)
Format: biochemical
Outline: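 Final mix: 15 nM MBP-TPH1, 30 μM Trp, 36 μM 6-methyltetrahydropterin, 25 μM ferrous ammonium sulfate, 50 mM MES pH 7.1, 1% DMSO, room temperature.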

[1] = read-out: TPH1 Range (TPH1 inhibition IC50)
[2] = TPH1 Range (TPH1 inhibition IC50)

| Structure (SMILES) | IC50 [1] [nM] | IC50 [2] [nM] |
| --- | --- | --- |
| CNS(=O)(=O)c1cccc(-c2cc(Cl)ccc2[C@@H](Oc2cc(N3CCC4(CC3)CN[C@H](C(=O)O)C4)nc(N)n2)C(F)(F)F)c1 [Example 34ck, (S)-8-(2-amino-6-((R)-1-(5-chloro-3′-(N-methylsulfamoyl)-[1,1′-biphenyl]-2-yl)-2,2,2-trifluoroethoxy)pyrimidin-4-yl)-2,8-diazaspiro[4.5]decane-3-carboxylic acid] | 50 to 300 |  |
| Nc1nc(O[C@H](c2ccc(Cl)cc2-c2ccccc2)C(F)(F)F)cc(N2CCC3(CC2)CN[C@@H](C(=O)O)C3)n1 [Example 54h, (R)-8-(2-amino-6-((R)-1-(5-chloro-[1,1′-biphenyl]-2-yl)-2,2,2-trifluoroethoxy)pyrimidin-4-yl)-2,8-diazaspiro[4.5]decane-3-carboxylic acid] |  | 3000 to 10000 |
| Cc1ccn(-c2cc(-c3cncnc3)ccc2[C@@H](Oc2cc(N3CCC4(CC3)CN[C@H](C(=O)O)C4)nc(N)n2)C(F)(F)F)n1 [Example 1ai, (S)-8-(2-amino-6-((R)-2,2,2-trifluoro-1-(2-(3-methyl-1H-pyrazol-1-yl)-4-(pyrimidin-5-yl)phenyl)ethoxy)pyrimidin-4-yl)-2,8-diazaspiro[4.5]decane-3-carboxylic acid] | < 50 |  |
| Nc1nc(O[C@H](c2ccc(Cl)cc2-c2cccc(C(F)(F)F)c2)C(F)(F)F)cc(N2CCC3(CC2)CN[C@H](C(=O)O)C3)n1 [Example 34q, (S)-8-(2-amino-6-((R)-1-(5-chloro-3′-(trifluoromethyl)-[1,1′-biphenyl]-2-yl)-2,2,2-trifluoroethoxy)pyrimidin-4-yl)-2,8-diazaspiro[4.5]decane-3-carboxylic acid] |  | < 50 |
| Cc1ccn(-c2cc(C(=O)OC(C)(C)C)ccc2[C@@H](Oc2cc(N3CCC4(CC3)CN[C@H](C(=O)O)C4)nc(N)n2)C(F)(F)F)n1 [Example 18d, (S)-8-(2-amino-6-((R)-1-(4-(tert-butoxycarbonyl)-2-(3-methyl-1H-pyrazol-1-yl)phenyl)-2,2,2-trifluoroethoxy)pyrimidin-4-yl)-2,8-diazaspiro[4.5]decane-3-carboxylic acid] | < 50 |  |
| Cc1ccn(-c2cc(-c3cccc(C#N)c3)ccc2[C@@H](Oc2cc(N3CCC4(CC3)CN[C@H](C(=O)O)C4)nc(N)n2)C(F)(F)F)n1 [Example 1w, (S)-8-(2-amino-6-((R)-1-(3′-cyano-3-(3-methyl-1H-pyrazol-1-yl)-[1,1′-biphenyl]-4-yl)-2,2,2-trifluoroethoxy)pyrimidin-4-yl)-2,8-diazaspiro[4.5]decane-3-carboxylic acid] | < 50 |  |
| Cc1ccn(-c2cc(-c3ccc(C(=O)NCCN4CCOCC4)cc3)ccc2[C@@H](Oc2cc(N3CCC4(CC3)CN[C@H](C(=O)O)C4)nc(N)n2)C(F)(F)F)n1 [Example 1ce, (S)-8-(2-amino-6-((R)-2,2,2-trifluoro-1-(3-(3-methyl-1H-pyrazol-1-yl)-4′-((2-morpholinoethyl)carbamoyl)-[1,1′-biphenyl]-4-yl)ethoxy)pyrimidin-4-yl)-2,8-diazaspiro[4.5]decane-3-carboxylic acid] | < 50 |  |
| Cc1ccn(-c2cc(C(N)=O)ccc2[C@@H](Oc2cc(N3CCC4(CC3)CN[C@H](C(=O)O)C4)nc(N)n2)C(F)(F)F)n1 [Example 15, (S)-8-(2-amino-6-((R)-1-(4-carbamoyl-2-(3-methyl-H-pyrazol-1-yl)phenyl)-2,2,2-trifluoroethoxy)pyrimidin-4-yl)-2,8-diazaspiro[4.5]decane-3-carboxylic acid] | 50 to 300 |  |
| Cc1cc(-c2cc(Cl)ccc2[C@@H](Oc2cc(N3CCC4(CC3)CN[C@H](C(=O)O)C4)nc(N)n2)C(F)(F)F)cc(C)c1Cl [Example 34bc, (S)-8-(2-amino-6-((R)-1-(4′,5-dichloro-3′,5′-dimethyl-[1,1′-biphenyl]-2-yl)-2,2,2-trifluoroethoxy)pyrimidin-4-yl)-2,8-diazaspiro[4.5]decane-3-carboxylic acid] | 50 to 300 |  |
| Cc1ccn(-c2cc(-c3cccc(C(C)C)c3)ccc2[C@@H](Oc2cc(N3CCC4(CC3)CN[C@H](C(=O)O)C4)nc(N)n2)C(F)(F)F)n1 [Example 1bb, (S)-8-(2-amino-6-((R)-2,2,2-trifluoro-1-(3′-isopropyl-3-(3-methyl-1H-pyrazol-1-yl)-[1,1′-biphenyl]-4-yl)ethoxy)pyrimidin-4-yl)-2,8-diazaspiro[4.5]decane-3-carboxylic acid] | < 50 |  |
| Nc1nc(O[C@H](c2ccc(Cl)cc2-n2ncc3ccccc32)C(F)(F)F)cc(N2CCC3(CC2)CN[C@H](C(=O)O)C3)n1 [Example 36c, (S)-8-(2-amino-6-((R)-1-(4-chloro-2-(1H-indazol-1-yl)phenyl)-2,2,2-trifluoroethoxy)pyrimidin-4-yl)-2,8-diazaspiro[4.5]decane-3-carboxylic acid] | < 50 |  |
| Cc1ccn(-c2ccc(-c3cccc(C(=O)O)c3)cc2[C@@H](Oc2cc(N3CCC4(CC3)CN[C@H](C(=O)O)C4)nc(N)n2)C(F)(F)F)n1 [Example 19f, (S)-8-(2-amino-6-((R)-1-(3′-carboxy-4-(3-methyl-1H-pyrazol-1-yl)-[1,1′-biphenyl]-3-yl)-2,2,2-trifluoroethoxy)pyrimidin-4-yl)-2,8-diazaspiro[4.5] decane-3-carboxylic acid] | < 50 |  |
| Cc1ccc(-c2cc(Cl)ccc2[C@@H](Oc2cc(N3CCC4(CC3)CN[C@H](C(=O)O)C4)nc(N)n2)C(F)(F)F)cc1C [Example 34ay, (S)-8-(2-amino-6-((R)-1-(5-chloro-3′,4′-dimethyl-[1,1′-biphenyl]-2-yl)-2,2,2-trifluoroethoxy)pyrimidin-4-yl)-2,8-diazaspiro[4.5]decane-3-carboxylic acid] | 50 to 300 |  |
| COC(=O)c1ccc(-c2ccc([C@@H](Oc3cc(N4CCC5(CC4)CN[C@H](C(=O)O)C5)nc(C)n3)C(F)(F)F)c(-n3ccc(C)n3)c2)cc1OC [Example 29q, (S)-8-(2-methyl-6-((R)-2,2,2-trifluoro-1-(3′-methoxy-4′-(methoxycarbonyl)-3-(3-methyl-1H-pyrazol-1-yl)-[1,1′-biphenyl]-4-yl)ethoxy)pyrimidin-4-yl)-2,8-diazaspiro[4.5]decane-3-carboxylic acid] | < 50 |  |
| CN1CCN(C(=O)c2cccc(-c3cc(Cl)ccc3[C@@H](Oc3cc(N4CCC5(CC4)CN[C@H](C(=O)O)C5)nc(N)n3)C(F)(F)F)c2)CC1 [Example 34ch, (S)-8-(2-amino-6-((R)-1-(5-chloro-3′-(4-methylpiperazine-1-carbonyl)-[1,1′-biphenyl]-2-yl)-2,2,2-trifluoroethoxy)pyrimidin-4-yl)-2,8-diazaspiro[4.5]decane-3-carboxylic acid] | < 50 |  |
| Cc1ccn(-c2cc(-c3ccc(C)c(C)c3)ccc2[C@@H](Oc2cc(N3CCC4(CC3)CN[C@@H](C(=O)O)C4)nc(N)n2)C(F)(F)F)n1 [Example 54m, (R)-8-(2-amino-6-((R)-1-(3′,4′-dimethyl-3-(3-methyl-1H-pyrazol-1-yl)-[1,1′-biphenyl]-4-yl)-2,2,2-trifluoroethoxy)pyrimidin-4-yl)-2,8-diazaspiro[4.5]decane-3-carboxylic acid] |  | 300 to 3000 |

More lines, main results first:

| IC50 [1] [nM] | Structure (SMILES) | IC50 [2] [nM] |
| --- | --- | --- |
| 50 to 300 | Nc1nc(O[C@H](c2ccc(-c3ccccc3)cc2-c2ccccc2)C(F)(F)F)cc(N2CCC3(CC2)CN[C@H](C(=O)O)C3)n1 [Example 54g, (S)-8-(6-((R)-1-([1,1′:3′,1″-terphenyl]-4′-yl)-2,2,2-trifluoroethoxy)-2-aminopyrimidin-4-yl)-2,8-diazaspiro[4.5]decane-3-carboxylic acid] |  |
| 50 to 300 | COc1cc(-c2ccc([C@@H](Oc3cc(N4CCC5(CC4)CN[C@H](C(=O)O)C5)nc(N)n3)C(F)(F)F)cc2)cc(C(F)(F)F)c1 [Example 55z, (S)-8-(2-amino-6-((R)-2,2,2-trifluoro-1-(3′-methoxy-5′-(trifluoromethyl)-[1,1′-biphenyl]-4-yl)ethoxy)pyrimidin-4-yl)-2,8-diazaspiro[4.5]decane-3-carboxylic acid] |  |
| 50 to 300 | Nc1nc(O[C@H](c2ccc(-c3ccc4cnsc4c3)cc2)C(F)(F)F)cc(N2CCC3(CC2)CN[C@H](C(=O)O)C3)n1 [Example 55f, (S)-8-(2-amino-6-((R)-1-(4-(benzo[d]isothiazol-6-yl)phenyl)-2,2,2-trifluoroethoxy)pyrimidin-4-yl)-2,8-diazaspiro[4.5]decane-3-carboxylic acid] |  |
| 300 to 3000 | CCCc1ccc(-c2ccc([C@@H](Oc3cc(N4CCC5(CC4)CN[C@H](C(=O)O)C5)nc(N)n3)C(F)(F)F)cc2)cc1 [Example 55bs, (S)-8-(2-amino-6-((R)-2,2,2-trifluoro-1-(4′-propyl-[1,1′-biphenyl]-4-yl)ethoxy)pyrimidin-4-yl)-2,8-diazaspiro[4.5]decane-3-carboxylic acid] |  |
| 50 to 300 | Cc1cc(C)cc(-c2ccc([C@@H](Oc3cc(N4CCC5(CC4)CN[C@H](C(=O)O)C5)nc(N)n3)C(F)(F)F)cc2)c1 [Example 55cq, (S)-8-(2-amino-6-((R)-1-(3′,5′-dimethyl-[1,1′-biphenyl]-4-yl)-2,2,2-trifluoroethoxy)pyrimidin-4-yl)-2,8-diazaspiro[4.5]decane-3-carboxylic acid] |  |
| 50 to 300 | Nc1nc(O[C@H](c2ccc(-c3cccc(OC(F)(F)F)c3)cc2)C(F)(F)F)cc(N2CCC3(CC2)CN[C@H](C(=O)O)C3)n1 [Example 55at, (S)-8-(2-amino-6-((R)-2,2,2-trifluoro-1-(3′-(trifluoromethoxy)-[1,1′-biphenyl]-4-yl)ethoxy)pyrimidin-4-yl)-2,8-diazaspiro[4.5]decane-3-carboxylic acid] |  |
